# In patent US7964558B2, “Therapeutic applications for C-peptide” (La Jolla, priority 2003, dated 2011):
# Tests used:
# diabetic BB/Wor rats [1] = experiment: Nerve conduction velocity in motor and sensory (sciatic-tibial) nerves of diabetic BB/Wor rats; type: in vivo, rat
# Procedure: Further technical details can be found in Sima et al., Diabetologia (2001) 44: 889-897.
# (§1) Prediabetic male BB/Wor rats were used. Ten rats were used in each group, where the animals were closely age-matched. They were maintained in metabolic cages with free access to water and rat chow. Bodyweight, urine volume and glucosuria were monitored daily to ascertain onset of diabetes. Immediately after the onset of diabetes, administration of C-peptides was commenced in either a single dose/24 hours, three doses/24 hours or as a continuous infusion by osmopump.
# (§2) The single dose given was 75 nmol/kg and the three doses given were each 25 nmol/kg. The continuous infusion gave a dose of 75 nmol/kg over a 24 hour period.
# Synthetic rat C-peptide II with a purity of more than 98% by HPLC was used (Genosys, Cambridge, UK) dissolved in saline (12 mg/ml). Control rats were given a dose of saline instead of C-peptide.
# The nerve conduction velocity in motor and sensory nerves and Na^+K^+ATPase levels in the rats were measured. Baseline nerve conduction velocity was measured within 24 hours of onset of diabetes. […]
# (§3) Statistical analysis. The results are presented as means±SE and the significance of differences was calculated by analysis of variance (ANOVA). Group differences were assessed by post hoc analysis using the Student-Newman-Keul test. […]
# Na+K+ATPase = Na+K+ATPase activity in the sciatic nerve of diabetic BB/Wor rats; type: in vivo, rat; settings: once daily dose 75 nmol/kg, 8 weeks, sciatic nerve (FIG. 4)
# Procedure: as §1, §2
# (§4) Synthetic rat C-peptide II with a purity of more than 98% by HPLC was used (Genosys, Cambridge, UK) dissolved in saline (12 mg/ml). Control rats were given a dose of saline instead of C-peptide. […]
# For Na^+/K^+-ATPase activity, nerve samples were homogenized in 2 ml of 0.2 mol/l sucrose and 0.02 mol/l TRIS-HCl at pH 7.5. […] Na^+/K^+-ATPase activity was defined as the difference before and after ouabain and was expressed as μmol ADP formed per gram of wet weight per hour.
# as §3
# diabetic BB/Wor rats [2] = experiment: Morphometric and teased fibre assessment of sural nerve in diabetic BB/Wor rats; type: in vivo, rat; settings: once daily dose 75 nmol/kg, 8 weeks, compared to diabetic rats (FIG. 5)
# Procedure: as §1, §2, §4
# Teased fibre examinations. A mean of 168±4 myelinated fibres were teased from each sural nerve and scored for specific changes. […] Changes were expressed as percentages of total fibres.
# as §3
# [3] = in humans; cited from earlier work
# [4] = dose injected into a rat; expected; cited from earlier work
substance,measurement,setting,value
"C-peptide: Synthetic rat C-peptide II, purity more than 98% by HPLC (Genosys), dissolved in saline; used in Example 1 (EVEDPQVGQVELGAGPGAGSEQTLALEVARQ; Ins Rodent C-peptide)",effectiveness of once daily dose compared with other dosing regimens,"diabetic BB/Wor rats [1]; nerve conduction velocity and Na+K+ATPase activity, 75 nmol/kg once daily vs 3 x 25 nmol/kg daily or 75 nmol/kg/24 h continuous infusion by osmopump",as effective as three daily dose or a continuous infusion
same,nerve conduction velocity,"diabetic BB/Wor rats [1]; once daily dose 75 nmol/kg, 8 weeks, diabetic BB/Wor rats, motor and sensory nerves (FIGS. 2, 3)",clearly and sufficiently improved
same,Na+K+ATPase activity,Na+K+ATPase,clearly and sufficiently improved
same,morphology of cells (morphometric data),diabetic BB/Wor rats [2],improved morphology
same,half-life,[3],approximately 30 minutes
same,time to disappear entirely from circulation,[4],2 to 3 h
